{"source": "patent US20230364084A1", "about": "“METHODS FOR PREVENTING OR TREATING CONDITIONS RELATED TO PIKFYVE ACTIVITY” (The Regents of the University of Michigan, priority 2020, published 2023)", "key": {"[1]": {"tested_on": "enzalutamide-resistant LNCaP-AR and CWR-R1 cells", "assay": "long-term survival assay in enzalutamide-resistant cell lines", "type": "cell-based, human", "conditions": "LNCaP-AR and CWR-R1, long-term survival two weeks", "method": "FIG. 1: ESK981 inhibits the growth of diverse preclinical models of prostate cancer and is associated with a unique vacuolization morphology. • (a) The percentage viabilities of DU145 cells treated with 300 nM ESK981 or 167 other tyrosine kinase inhibitors when compared to a vehicle control. The top five most inhibitory compounds, as well as cabozantinib and crizotinib (highlighted in orange), and their respective targets are listed in the table. […] Long-term survival (two weeks) was assayed by absorbance of crystal violet at OD590. • (e) VCaP-RFP cells were cultured for three days in ultralow attachment plates to form 3D tumor spheroids prior to the indicated drug treatments. […] Fluorescence intensity of 3D spheroids was measured by IncuCyte ZOOM. • (f) Castration-resistant VCaP tumors were established subcutaneously in castrated SCID mice, and mice were randomized into three groups, which received vehicle, 30 mg/kg, or 60 mg/kg ESK981 by oral gavage once per day for the indicated dosing schedule. Tumor volumes were monitored by a digital caliper twice per week. Data were analyzed by unpaired t test and presented as mean±SEM. *p<0.05; **p<0.01. • (g) AR^+ prostate patient-derived xenograft (PDX) MDA-PCa-146-12 were implanted subcutaneously in non-castrated SCID mice, and mice were randomized into two groups receiving either once daily vehicle or 30 mg/kg ESK981 for five days each week. […]"}, "[2]": {"tested_on": "autophagosomes in LNCaP, VCaP and DU145 cells", "assay": "CYTO-ID autophagosome detection", "type": "cell-based, human", "conditions": "24 hours", "method": "10,000 cells were plated in 96-well plates and incubated with 300 nM of the various compounds for 24 hours. Autophagy activities were detected with CYTO-ID® Autophagy detection kit (Cat No. ENZ-KIT175, Enzo Life Science) according to the manufacturer's instructions, with fluorescence intensity measured on a TECAN M1000 plate reader. Autophagosome induction factor was calculated according to the manufacturer's instructions."}, "[3]": {"tested_on": "lysosomes in VCaP, LNCaP, PC3 and DU145 cells", "assay": "LysoTracker Green flow cytometry", "type": "cell-based, human", "conditions": "four prostate cancer cell lines, 24 hours, increasing concentrations", "method": "Cells were grown in 6-well plates and treated with various drugs. After 24 hours, cells were stained with LysoTracker® Green DND-26 (Invitrogen), and green fluorescence signal was analyzed by flow cytometry."}, "CXCL10 in VCaP cells": {"tested_on": "CXCL10 in VCaP cells", "assay": "human CXCL10 ELISA of conditioned medium", "type": "cell-based", "conditions": "VCaP-conditioned medium, 300 nM, 24 hours", "method": "Conditioned medium was collected after 24 hours of drug incubation. ELISA was performed using a human CXCL10 ELISA kit (Cat No. KAC2361, ThermoFisher), or a mouse CXCL10 ELISA kit (Cat No. ab214563, Abcam) according to the manufacturer's instructions."}, "VEGFR-1 (FLT1)": {"target": "VEGFR-1 (FLT1) (Homo sapiens, UniProt P17948)", "sequence (P17948 27-1338, species assumed)": "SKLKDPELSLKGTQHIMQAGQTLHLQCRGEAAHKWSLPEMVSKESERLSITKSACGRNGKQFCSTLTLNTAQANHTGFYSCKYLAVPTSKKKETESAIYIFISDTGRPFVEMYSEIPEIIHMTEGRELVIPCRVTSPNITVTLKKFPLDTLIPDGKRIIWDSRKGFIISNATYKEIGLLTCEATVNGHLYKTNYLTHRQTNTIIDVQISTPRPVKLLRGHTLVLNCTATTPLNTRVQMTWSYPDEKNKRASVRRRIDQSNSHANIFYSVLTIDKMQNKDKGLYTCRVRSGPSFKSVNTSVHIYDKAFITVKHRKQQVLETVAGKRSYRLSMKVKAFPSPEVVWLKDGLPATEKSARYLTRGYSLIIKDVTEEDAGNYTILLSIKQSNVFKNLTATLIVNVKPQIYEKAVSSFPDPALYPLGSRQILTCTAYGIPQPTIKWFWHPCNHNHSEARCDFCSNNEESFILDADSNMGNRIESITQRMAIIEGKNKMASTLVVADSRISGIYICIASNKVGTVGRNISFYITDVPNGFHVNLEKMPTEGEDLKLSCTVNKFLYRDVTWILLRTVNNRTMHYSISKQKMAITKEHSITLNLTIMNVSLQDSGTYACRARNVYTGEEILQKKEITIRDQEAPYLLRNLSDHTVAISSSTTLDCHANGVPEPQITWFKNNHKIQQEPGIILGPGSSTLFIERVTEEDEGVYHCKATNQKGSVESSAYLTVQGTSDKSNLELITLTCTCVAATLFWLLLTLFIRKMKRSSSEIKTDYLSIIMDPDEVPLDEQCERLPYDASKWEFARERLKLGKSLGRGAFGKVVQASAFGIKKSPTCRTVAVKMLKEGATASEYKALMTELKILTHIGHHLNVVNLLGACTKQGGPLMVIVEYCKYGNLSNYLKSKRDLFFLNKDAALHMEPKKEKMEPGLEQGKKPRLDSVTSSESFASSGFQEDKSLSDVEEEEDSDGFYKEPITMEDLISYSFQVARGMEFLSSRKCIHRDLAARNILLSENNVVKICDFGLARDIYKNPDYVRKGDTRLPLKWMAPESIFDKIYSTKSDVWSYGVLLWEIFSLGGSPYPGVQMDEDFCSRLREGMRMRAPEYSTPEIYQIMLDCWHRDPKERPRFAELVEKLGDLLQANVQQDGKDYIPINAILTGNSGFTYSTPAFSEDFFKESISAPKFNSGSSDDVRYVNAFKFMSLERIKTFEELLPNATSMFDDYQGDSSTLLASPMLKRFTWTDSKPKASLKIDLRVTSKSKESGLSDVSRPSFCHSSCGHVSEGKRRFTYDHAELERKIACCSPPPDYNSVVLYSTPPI", "conditions": "cited from earlier work"}, "PIKfyve": {"target": "PIKfyve (Homo sapiens, UniProt Q9Y2I7)", "sequence (Q9Y2I7 whole entry)": "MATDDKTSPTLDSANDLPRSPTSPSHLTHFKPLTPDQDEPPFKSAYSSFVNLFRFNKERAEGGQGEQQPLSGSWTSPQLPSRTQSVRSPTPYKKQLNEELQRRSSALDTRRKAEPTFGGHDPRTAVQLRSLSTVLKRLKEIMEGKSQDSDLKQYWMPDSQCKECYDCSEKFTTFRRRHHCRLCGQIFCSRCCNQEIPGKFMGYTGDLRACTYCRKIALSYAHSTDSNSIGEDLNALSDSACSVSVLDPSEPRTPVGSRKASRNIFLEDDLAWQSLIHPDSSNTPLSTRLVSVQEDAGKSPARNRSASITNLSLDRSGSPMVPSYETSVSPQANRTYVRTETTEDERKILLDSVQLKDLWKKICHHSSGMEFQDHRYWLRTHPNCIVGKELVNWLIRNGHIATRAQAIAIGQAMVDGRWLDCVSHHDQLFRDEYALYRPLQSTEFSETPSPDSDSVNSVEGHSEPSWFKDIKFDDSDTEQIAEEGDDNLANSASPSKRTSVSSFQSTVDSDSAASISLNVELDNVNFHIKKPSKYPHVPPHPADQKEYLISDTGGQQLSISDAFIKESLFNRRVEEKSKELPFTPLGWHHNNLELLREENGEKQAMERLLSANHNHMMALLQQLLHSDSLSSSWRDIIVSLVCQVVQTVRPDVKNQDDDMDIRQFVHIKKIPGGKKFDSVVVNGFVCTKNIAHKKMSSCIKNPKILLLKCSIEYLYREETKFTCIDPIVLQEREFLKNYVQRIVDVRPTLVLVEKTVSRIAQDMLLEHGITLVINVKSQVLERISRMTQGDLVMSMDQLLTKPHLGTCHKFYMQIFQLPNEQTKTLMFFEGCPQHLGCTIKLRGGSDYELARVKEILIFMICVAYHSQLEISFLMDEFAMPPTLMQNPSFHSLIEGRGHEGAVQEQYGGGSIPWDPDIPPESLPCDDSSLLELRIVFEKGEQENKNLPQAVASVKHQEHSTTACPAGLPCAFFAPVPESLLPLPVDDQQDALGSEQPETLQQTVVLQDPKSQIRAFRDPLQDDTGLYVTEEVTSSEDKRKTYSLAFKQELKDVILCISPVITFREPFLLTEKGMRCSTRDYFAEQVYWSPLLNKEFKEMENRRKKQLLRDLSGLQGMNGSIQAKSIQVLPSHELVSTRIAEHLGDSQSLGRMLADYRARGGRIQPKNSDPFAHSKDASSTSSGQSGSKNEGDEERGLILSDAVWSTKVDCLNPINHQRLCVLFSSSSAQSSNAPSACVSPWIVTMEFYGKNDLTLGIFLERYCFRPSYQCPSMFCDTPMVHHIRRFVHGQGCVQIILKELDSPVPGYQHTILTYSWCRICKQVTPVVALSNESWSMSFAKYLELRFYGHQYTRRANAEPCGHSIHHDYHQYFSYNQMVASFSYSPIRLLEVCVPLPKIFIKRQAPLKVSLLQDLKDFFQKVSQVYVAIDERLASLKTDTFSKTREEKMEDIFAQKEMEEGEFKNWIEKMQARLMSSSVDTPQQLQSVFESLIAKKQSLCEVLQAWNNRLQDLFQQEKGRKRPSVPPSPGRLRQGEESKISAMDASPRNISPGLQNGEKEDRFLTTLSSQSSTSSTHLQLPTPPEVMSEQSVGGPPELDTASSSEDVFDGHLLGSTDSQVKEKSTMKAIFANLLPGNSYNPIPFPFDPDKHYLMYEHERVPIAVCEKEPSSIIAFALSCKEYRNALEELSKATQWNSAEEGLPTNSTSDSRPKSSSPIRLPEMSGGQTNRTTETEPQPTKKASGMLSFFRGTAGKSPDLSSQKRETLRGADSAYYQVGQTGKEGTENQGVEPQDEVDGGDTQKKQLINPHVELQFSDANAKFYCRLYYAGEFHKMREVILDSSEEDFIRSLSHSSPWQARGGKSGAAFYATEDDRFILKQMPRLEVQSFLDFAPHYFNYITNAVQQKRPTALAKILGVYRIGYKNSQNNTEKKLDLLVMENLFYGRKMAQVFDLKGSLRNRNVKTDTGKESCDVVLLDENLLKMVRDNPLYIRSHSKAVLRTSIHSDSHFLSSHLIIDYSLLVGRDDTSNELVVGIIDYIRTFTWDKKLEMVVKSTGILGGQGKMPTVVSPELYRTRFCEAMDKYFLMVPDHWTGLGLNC", "assay": "kinase dissociation constant analysis (KdELECT)", "type": "binding", "parameters": "purchased DiscoveRX (KINOMEscan scanLIPID panel; KdELECT)", "conditions": "11-point dose-response, duplicate", "method": "Quantitative binding constants (Kd) of ESK981 to PIKfyve, PIP5K1A, PIP5K1C, and PIK3CA were generated using KdELECT® platform (DiscoveRX). An 11-point dose-response of ESK981 (0.05-3000 nM) was used, and the experiment was performed in duplicate. Detailed information is described on the DiscoveRX website (www.discoverx.com)."}}}
{"compound": "CC(C)Cn1c2ccc(Nc3ncccn3)cc2c2c3c(c4c(c21)CCc1nn(C)cc1-4)C(=O)NC3", "note": "[ESK981, 13-isobutyl-4-methyl-10-(pyrimidin-2-ylamino)-1,2,4,7,8,13-hexahydro-6H-indazolo[5,4-a]pyrrolo[3,4-c]carbazol-6-one]", "values": [{"measurement": "efficacy in enzalutamide-resistant cell lines", "setting": "[1]", "value": "remained efficacious"}, {"measurement": "rank in autophagosome induction among compound libraries", "setting": "[2]; DU145 cells, 300 nM, vs 154 autophagy-related compounds and 167 tyrosine kinase inhibitors", "value": "highest potency at inducing autophagosome levels"}, {"measurement": "autophagosome signals (CYTO-ID fluorescence intensity)", "setting": "[2]; LNCaP, VCaP and DU145 cells, increasing concentrations", "value": "dose-dependent induction of autophagosome signals"}, {"measurement": "level of autophagosome induction compared with rapamycin", "setting": "[2]; VCaP and LNCaP cells", "value": "higher than a known autophagy activator, the mTOR inhibitor rapamycin"}, {"measurement": "lysosome quantity (LysoTracker Green)", "setting": "[3]", "value": "Increased ESK981 lysosome quantity was observed in a dose-dependent manner"}, {"measurement": "rank in inducing CXCL10 levels among compound libraries", "setting": "CXCL10 in VCaP cells", "value": "ranked first in inducing CXCL10 levels in the tyrosine kinase inhibitor library and second in the autophagy-linked compound library"}, {"measurement": "activity against kinase", "setting": "VEGFR-1 (FLT1)", "value": "potent activity"}, {"measurement": "Kd", "setting": "PIKfyve", "value": 12, "unit": "nM"}]}
